Consider two compounds from patent publication US20220008392A1, “METHODS OF TREATING CANCER” (ASTRAZENECA AB, priority 2018, published 2022).

The subject of experiment [1] is OCILY10 and TMD8 cell lines. Put plainly: Caspase-Glo 3/7 activation after Bfl-1 siRNA knockdown. It counts as cell-based. The settings on record: 6 hours. The protocol: Method: OCILY10 and TMD8 cells were grown in logarithmic phase and plated in serum-free siRNA delivery media at 1×10^6 cells/mL in 12-well plates (Dharmacon B-005000). An siRNA SMARTpool targeting Bfl-1 or a scrambled negative control (NTC) were added to respective wells for 24 hours at 0.1 or 0.5 μM (Dharmacon Bcl2a1-597, NTC-D-001910-01). 2 mL of cell culture media was added to all transfected wells and transferred into a 6-well plate for an additional 48 hours. Transfected cells were collected to assess Bfl-1 protein knockdown and cleaved caspase-3 by western blot. Transfected cells were also seeded onto 384 well plates pre-dosed with an 8-point titration of AZD4573 or AZD5991 and incubated for 6 hours. The plates were measured for activation of cleaved caspase using Caspase-Glo 3/7 (Promega) following the manufacturer's protocol.

Experiment [2] concerns lymphoma cell lines. Kind of experiment: 6-hour caspase activation assay (Caspase-Glo 3/7) in 33 lymphoma cell line panel. The experiment is classed as cell-based. The settings on record: for Emax: 6 hour compound incubation, cell lines highlighted in FIG. 1B, read-out: caspase maximum effect. Here is the method:
Method: 33 diffuse large B-cell (DLBCL) and Mantle cell (MCL) lymphoma cell lines were seeded onto 384 well plates pre-dosed with 10-point, ½ log titrations of AZD4573 or AZD5991, and incubated for 6 hours. Following the incubation cleaved caspase was measured using Caspase-Glo 3/7 (Promega) following the manufacturer's protocol. Data was analyzed using GeneData Screener and Spotfire.
Method: Cell lysates from 33 lymphoma cell lines were generated in parallel to evaluate protein expression of pro-survival Bcl2 family members. Cell lysates were normalized for protein concentration using the BCA Protein Assay Kit, and western blots were run according to standard protocols. A positive cell line control for expression of Bfl-1, TMD8, was utilized for normalization to other cell lines in the panel. AZD4573 and AZD5991 respective median and geomean caspase EC50's were calculated from cell lines clustered based on high and low Bfl-1 expression, respectively.

Experiment [3] relates to pSer2-RNAP2. Put plainly: Western blot of proximal CDK9 biomarker in OCILY10 cells treated with AZD4573. It counts as cell-based. The protocol: (§1) Method: The ABC-DLBCL cell line OCILY10 was treated for 6 h with a 9 pt, ½ log dose response of AZD4573 and cells were harvested for protein lysates. These cells were also treated with AZD4573 at 100 nM for varying timepoints out to 6 hours. At each timepoint (0, 0.5, 1, 2, 4, 6 hours) cells were harvested for either mRNA isolation, or protein lysates, respectively. mRNA was converted to cDNA and PCR sequence amplification was performed with Mcl1 and Bcl2a1 primers following standard protocols. Protein lysates were normalized for protein concentration using the BCA Protein Assay Kit, and run for western blots according to standard protocols. To ensure expected target engagement was achieved, the blots were probed for the proximal biomarker for CDK9 (pSer2-RNAPolII), along with Mcl-1 and Bfl-1. To gauge the time to induction of apoptosis, cleaved caspase-3 was assessed. A loading control (vinculin) was also utilized for normalization.
For orientation: Immunoblotting shows a protein as a band on a membrane.

The test system of experiment [4] is OCILY10 cells. Kind of experiment: Cleaved caspase-3 induction over time in OCILY10 cells. The settings on record: 100 nM AZD4573. It counts as cell-based. The protocol: as §1
Experiment [5] concerns Mcl-1 and Bfl-1. Kind of experiment: Mcl-1 and Bfl-1 mRNA (PCR) and Bcl2 family protein (western blot) modulation in OCILY10 cells. The experiment is classed as cell-based. Here is the method: as §1
For experiment [6], the system named is TMD8 xenograft. Put plainly: TMD8 ABC-DLBCL xenograft efficacy. It counts as in vivo, C.B.-17 SCID female mice. The protocol: (§2) Method: AZD4573 was formulated in dimethylacetamide (DMA)/polyethylene glycol 400 (PEG 400)/1% w/v Tween 80 solution 2/30/68 and dosed at 15 mg/kg, intraperitoneally (ip), BID with a 2 hour split on days 1 and 2 with a 5 day dose holiday.
(§3) AZD5991 was formulated for intravenous use in 30% HPBCD (hydroxy-propyl-beta-cyclodextrin) in water-for-injection adjusted to pH 9.0-9.5 up to a concentration of 20 mg/mL (based on parent form). AZD5991 was dosed at 60 mg/kg by tail-vain intravenous injection once weekly.
(§4) 5×10^6 OCILy10 tumor cells or 10×10^6 TMD8 tumor cells were injected subcutaneously in the right flank of C.B.-17 SCID female mice in a volume of 0.1 mL containing 50% matrigel.
(§5) Tumor volumes (measured by caliper), animal body weight, and tumor condition were recorded twice weekly for the duration of the studies. The tumor volume was calculated using the formula: length (mm)×width (mm)^2×0.52. For efficacy studies, growth inhibition from the start of treatment was assessed by comparison of the differences in tumor volume between control and treated groups. Dosing began when mean tumor size reached approximately 150-180 mm^3. CR=complete response.

In experiment [7] the test system is OCILY10 xenograft. Kind of experiment: OCILY10 ABC-DLBCL xenograft efficacy. The experiment is classed as in vivo, C.B.-17 SCID female mice. The protocol: as §2, §3, §4, §5
The mark [8] stands for this setting: 15 mg/kg ip BID with 2 hour split on days 1 and 2, 5 day dose holiday.

Consider `Cc1c2c(nn1C)CSCc1cc(n(C)n1)CSc1cc(c3ccccc3c1)OCCCc1c(C(=O)O)n(C)c3c-2c(Cl)ccc13` (atropisomer, axis not shown) [AZD5991], for which the “maximum level of apoptosis (cleaved caspase)” value is recorded as “over 90%” in experiment [1] (OCILY10 and TMD8, Bfl-1 siRNA knockdown cells); 45% in experiment [1] (average of OCILY10 and TMD8, without Bfl-1 knockdown). The Emax in experiment [2] is less than 50%.
In the case of `CC(=O)N[C@@H]1CCC[C@H](C(=O)Nc2cc(-c3cnn4c3CC(C)(C)C4)c(Cl)cn2)C1` [AZD4573, (1S,3R)-3-acetamido-N-(5-chloro-4-(5,5-dimethyl-5,6-dihydro-4H-pyrrolo [1,2-b]pyrazol-3-yl)pyridin-2-yl)cyclohexanecarboxamide], the “Expression of pSer2-RNAP2 inhibited” value in experiment [3] (100 nM AZD4573, 30 minutes after dosing) was greater than 80%. In experiment [3] (6 h, serial dilutions of AZD4573), the pSer2-RNAP2 inhibition entry is “inhibited in a dose-dependent manner”. Further, the “time at which cleaved caspase was detected” value in experiment [4] stood at 6 h. Besides, in experiment [5] (100 nM AZD4573), the “time by which Mcl1 and Bfl1 mRNA expression were reduced to equivalent levels” value was no more than 2 h. For the same compound, in experiment [5] (100 nM AZD4573), the “time of reductions in Mcl-1 and Bfl-1 protein” value was 4 h. Further, the “expression of longer lived proteins Bcl2, Bcl-xL and Bcl-W” value in experiment [5] (after 6 h treatment with AZD4573) was “relatively unchanged”. Further, the “reductions in Mcl-1 and Bfl-1 protein” value in experiment [5] (at concentrations that inhibited pSer2-RNAP2) is reported as “Equipotent reductions”. For the same compound, the Emax in experiment [2] is greater than 50%. In addition, the “geometric mean caspase EC50 difference between AZD5991 and AZD4573” value in experiment [2] (Bfl-1 expressing cell lines (n=8)) came to 22 fold; in experiment [2] (cell lines with no expression of Bfl-1 (n=25)), 4 fold. The TGI in experiment [6] (setting [8]) worked out at 184%; in experiment [7] (setting [8]), 198%. Besides, the anti-tumor response result was “complete tumor regressions” in experiment [6] (TMD8 xenograft, AZD4573 treatment) and “complete tumor regressions” in experiment [7] (OCILY10 xenograft, AZD4573 treatment).
